ChEMBL document CHEMBL1201862, “PubChem BioAssay data set” (2004)
Active and inactive are the calls of the source.

Assays:
[1] = viability loss in BJeLR (HRASV12) cells, primary screen, Ras selective lethality project, cell-based, Alamar Blue, dry powder (AID 493045); format: functional
[2] = cytotoxicity in BJeH fibroblasts, dose response, counter-screen for Ras selective lethality project, BJeH cells, dry powder (AID 493054); format: functional, cell-based
[3] = viability loss in HRASV12 DRD fibroblasts, dose response, cell-based, DRD BJ fibroblasts, dry powder (AID 493049); format: functional
[4] = cytotoxicity in BJeHLT fibroblasts, dose response, counter-screen for Ras selective lethality project, BJeHLT cells, dry powder (AID 493052); format: functional, cell-based; details: Homo sapiens
[5] = biological target: G-protein coupled receptor 55 (Homo sapiens, UniProt Q9Y2T6); experiment: GPR55 antagonists blocking LPI-driven arrestin recruitment, primary screen, imaging, U2OS, beta-arrestin-GFP, LPI agonist (AID 2013); format: functional;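 note: antagonist potency measured as reduced agonist-driven arrestin aggregation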
[6] = biological target: T1, Heat shock factor protein 1 (Mus musculus, UniProt P38532); experiment: HSF1 potentiators in luciferase reporter cells, confirmation, cell-based, NIH3T3, luminescence, dose retest (AID 435004); format: functional;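 note: stress induced by proteasome inhibitor MG132 added 30 min after compound; luciferase reporter driven by HSF1 response element in NIH3T3 cells; actives raise luminescence as potentiators of the MG132 stress response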
T1 sequence (P38532 whole entry): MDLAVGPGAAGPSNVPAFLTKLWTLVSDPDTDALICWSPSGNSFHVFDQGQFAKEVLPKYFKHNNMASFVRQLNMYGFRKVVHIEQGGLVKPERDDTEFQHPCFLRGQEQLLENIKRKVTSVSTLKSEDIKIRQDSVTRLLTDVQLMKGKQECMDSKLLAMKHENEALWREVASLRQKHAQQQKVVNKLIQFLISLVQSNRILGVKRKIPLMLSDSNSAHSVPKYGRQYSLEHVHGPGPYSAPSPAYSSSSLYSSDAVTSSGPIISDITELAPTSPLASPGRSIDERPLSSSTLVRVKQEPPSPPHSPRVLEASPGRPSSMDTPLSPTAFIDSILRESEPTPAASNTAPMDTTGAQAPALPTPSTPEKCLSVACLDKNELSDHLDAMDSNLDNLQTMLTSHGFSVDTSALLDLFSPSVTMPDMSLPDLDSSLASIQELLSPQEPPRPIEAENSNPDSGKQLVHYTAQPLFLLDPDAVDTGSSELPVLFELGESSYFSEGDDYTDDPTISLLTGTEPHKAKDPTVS

[7] = P. falciparum late gametocyte killing, dose response, luminescence (AID 1117278); format: functional, cell-based;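 note: gametocytes exposed to compound for 24 hours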
[8] = Jurkat T cell cytotoxicity, dose response, cytotoxicity control for P. falciparum gametocyte viability project, luminescence (AID 1117277); format: functional, cell-based;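 note: potency reflects loss of cellular ATP meaning fewer viable cells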
[9] = biological target: 1-phosphatidylinositol 4,5-bisphosphate phosphodiesterase gamma-1 (Homo sapiens, UniProt P19174); experiment: Counterscreen for inhibitors of phospholipase C isozymes (PLC-B3): Fluorescence-based biochemical high throughput dose response assay to identify inhibitors of phospholipase C isozymes (PLC-gamma1).
[10] = biological target: T2, Histone-lysine N-methyltransferase NSD2 (Homo sapiens, UniProt O96028); format: biochemical
T2 sequence (O96028 whole entry): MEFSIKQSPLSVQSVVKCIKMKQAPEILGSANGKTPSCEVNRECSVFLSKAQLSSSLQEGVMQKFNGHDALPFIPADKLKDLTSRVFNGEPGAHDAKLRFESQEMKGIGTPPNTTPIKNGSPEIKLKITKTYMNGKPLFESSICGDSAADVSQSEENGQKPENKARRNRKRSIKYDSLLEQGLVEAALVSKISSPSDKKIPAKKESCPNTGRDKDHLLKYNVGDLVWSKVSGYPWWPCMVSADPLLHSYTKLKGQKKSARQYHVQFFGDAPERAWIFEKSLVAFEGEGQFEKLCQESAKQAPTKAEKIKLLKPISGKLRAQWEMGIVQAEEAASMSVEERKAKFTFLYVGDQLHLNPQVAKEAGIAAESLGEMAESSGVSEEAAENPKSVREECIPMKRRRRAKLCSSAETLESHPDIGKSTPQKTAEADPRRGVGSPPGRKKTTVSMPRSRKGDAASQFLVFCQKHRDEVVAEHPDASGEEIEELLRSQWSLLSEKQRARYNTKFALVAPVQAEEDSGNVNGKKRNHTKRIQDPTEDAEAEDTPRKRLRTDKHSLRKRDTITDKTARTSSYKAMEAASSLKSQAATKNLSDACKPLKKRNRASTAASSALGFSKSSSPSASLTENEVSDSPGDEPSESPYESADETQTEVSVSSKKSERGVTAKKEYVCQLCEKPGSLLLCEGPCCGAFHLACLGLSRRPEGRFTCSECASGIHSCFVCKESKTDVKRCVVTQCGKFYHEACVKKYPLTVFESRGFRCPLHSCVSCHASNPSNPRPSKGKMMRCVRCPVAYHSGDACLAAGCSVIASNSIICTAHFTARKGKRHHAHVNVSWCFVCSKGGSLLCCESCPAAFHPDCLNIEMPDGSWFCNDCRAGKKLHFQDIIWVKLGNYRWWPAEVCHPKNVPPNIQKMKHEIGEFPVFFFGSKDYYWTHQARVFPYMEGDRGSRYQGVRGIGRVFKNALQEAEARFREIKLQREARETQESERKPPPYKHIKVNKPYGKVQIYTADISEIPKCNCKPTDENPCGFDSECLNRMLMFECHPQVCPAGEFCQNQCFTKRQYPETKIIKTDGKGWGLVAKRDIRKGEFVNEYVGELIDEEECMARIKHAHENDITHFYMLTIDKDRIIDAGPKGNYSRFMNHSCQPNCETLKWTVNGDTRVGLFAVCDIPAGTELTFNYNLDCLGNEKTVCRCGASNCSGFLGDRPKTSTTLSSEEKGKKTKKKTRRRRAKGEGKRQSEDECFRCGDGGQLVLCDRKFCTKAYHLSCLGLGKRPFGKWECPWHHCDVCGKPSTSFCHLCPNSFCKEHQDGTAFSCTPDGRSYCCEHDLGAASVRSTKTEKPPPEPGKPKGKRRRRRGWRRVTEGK

Bcl-2-like protein 1 = Bcl-2-like protein 1 (Homo sapiens, UniProt Q07817); experiment: BCL-XL inhibitors, dose response, selectivity assay for MCL1 inhibitor project, biochemical, fluorescence polarization, 1536-well (AID 2218)
Bcl-2-like protein 1, sequence (Q07817 whole entry): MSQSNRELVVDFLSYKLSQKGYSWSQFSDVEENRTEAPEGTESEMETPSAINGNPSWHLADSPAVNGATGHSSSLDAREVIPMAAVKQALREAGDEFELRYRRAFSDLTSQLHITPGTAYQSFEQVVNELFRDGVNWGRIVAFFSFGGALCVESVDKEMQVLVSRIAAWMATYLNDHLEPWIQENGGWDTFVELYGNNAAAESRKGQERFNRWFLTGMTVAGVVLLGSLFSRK

[11] = biological target: T3, Alkaline phosphatase, tissue-nonspecific isozyme (Homo sapiens, UniProt P05186); experiment: TNAP enzyme inhibition by screening hits, dose response, selectivity assay for mouse IAP inhibitor project, biochemical, human TNAP, uHTS hits (AID 488906); format: functional
T3 sequence (P05186 whole entry): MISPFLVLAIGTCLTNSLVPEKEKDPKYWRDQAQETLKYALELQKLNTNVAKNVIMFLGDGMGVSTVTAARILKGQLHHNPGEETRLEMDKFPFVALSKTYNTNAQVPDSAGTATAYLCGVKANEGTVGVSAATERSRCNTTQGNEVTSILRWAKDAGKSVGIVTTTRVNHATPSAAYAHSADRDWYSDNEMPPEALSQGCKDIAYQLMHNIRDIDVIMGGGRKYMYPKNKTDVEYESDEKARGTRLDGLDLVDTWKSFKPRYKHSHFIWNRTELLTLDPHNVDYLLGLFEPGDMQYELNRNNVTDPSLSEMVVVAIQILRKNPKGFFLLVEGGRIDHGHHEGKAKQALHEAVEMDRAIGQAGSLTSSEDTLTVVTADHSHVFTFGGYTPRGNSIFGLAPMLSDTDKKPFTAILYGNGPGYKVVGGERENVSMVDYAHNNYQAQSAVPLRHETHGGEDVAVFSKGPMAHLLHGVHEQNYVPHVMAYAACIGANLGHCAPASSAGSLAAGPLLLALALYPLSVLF

Large T antigen = Large T antigen (Simian virus 40, UniProt P03070); format: functional, Betapolyomavirus macacae;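 note: Confirmatory-stage PubChem screen for compounds that inhibit SV40 T antigen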
[12] = biological target: Induced myeloid leukemia cell differentiation protein Mcl-1 (Homo sapiens, UniProt Q07820); experiment: MCL1-BIM BH3 interaction inhibitors, dose response, biochemical, fluorescence polarization, BIM-BH3 peptide, 1536-well (AID 2217)
ORF 73 = ORF 73 (Human herpesvirus 8, UniProt O40947); experiment: inhibitors of C-LANA binding to LBS DNA, dose response, biochemical, fluorescence polarization, cherry-picked samples (AID 504725); design: species or system Human gammaherpesvirus 8;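 note: fluorescence polarization of a labeled DNA duplex reporting LANA DNA binding; potency is for inhibitors that block LANA binding to the DNA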
ORF 73, sequence (O40947 whole entry): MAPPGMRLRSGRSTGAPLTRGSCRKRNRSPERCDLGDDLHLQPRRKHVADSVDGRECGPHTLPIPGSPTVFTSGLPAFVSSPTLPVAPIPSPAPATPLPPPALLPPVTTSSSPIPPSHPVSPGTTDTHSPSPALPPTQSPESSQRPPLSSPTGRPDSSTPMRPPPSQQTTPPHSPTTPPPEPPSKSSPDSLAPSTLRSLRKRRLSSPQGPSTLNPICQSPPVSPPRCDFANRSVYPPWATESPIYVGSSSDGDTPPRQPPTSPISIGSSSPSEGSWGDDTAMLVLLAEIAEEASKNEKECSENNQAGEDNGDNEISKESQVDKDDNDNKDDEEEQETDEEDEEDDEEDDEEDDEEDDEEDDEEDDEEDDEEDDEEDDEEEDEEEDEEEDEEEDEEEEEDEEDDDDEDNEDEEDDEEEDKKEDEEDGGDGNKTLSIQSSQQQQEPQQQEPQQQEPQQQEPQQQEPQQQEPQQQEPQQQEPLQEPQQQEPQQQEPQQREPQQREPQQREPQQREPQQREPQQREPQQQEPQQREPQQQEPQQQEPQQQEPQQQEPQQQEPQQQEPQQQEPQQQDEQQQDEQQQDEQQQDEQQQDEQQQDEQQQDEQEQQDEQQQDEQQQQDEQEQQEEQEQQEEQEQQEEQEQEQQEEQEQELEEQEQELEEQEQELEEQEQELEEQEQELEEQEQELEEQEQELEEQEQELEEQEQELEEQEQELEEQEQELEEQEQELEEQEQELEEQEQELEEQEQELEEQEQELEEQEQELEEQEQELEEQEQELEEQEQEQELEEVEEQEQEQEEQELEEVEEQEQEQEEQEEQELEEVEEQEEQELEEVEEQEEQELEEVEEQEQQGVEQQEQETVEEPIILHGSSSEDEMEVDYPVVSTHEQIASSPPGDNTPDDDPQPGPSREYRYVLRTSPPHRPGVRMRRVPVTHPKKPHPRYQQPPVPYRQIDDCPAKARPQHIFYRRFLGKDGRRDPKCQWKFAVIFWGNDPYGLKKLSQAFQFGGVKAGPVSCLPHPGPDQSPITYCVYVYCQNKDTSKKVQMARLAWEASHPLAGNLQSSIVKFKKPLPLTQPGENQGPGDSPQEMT

[13] = biological target: Intestinal-type alkaline phosphatase (Homo sapiens, UniProt P09923); experiment: inhibition of human intestinal alkaline phosphatase – biochemical, dose response (AID 488876); format: functional
[14] = biological target: Intestinal-type alkaline phosphatase (Mus musculus, UniProt P24822); experiment: PubChem AID 488785; format: functional
Genome polyprotein = Genome polyprotein (dengue virus type 2, UniProt P29990); experiment: Dengue-2 NS5 methyltransferase inhibitors, primary screen, biochemical, confirmation dose response (AID 588689); format: functional
[15] = biological target: 1-phosphatidylinositol 4,5-bisphosphate phosphodiesterase beta-3 (Homo sapiens, UniProt Q01970); experiment: Fluorescence-based biochemical high throughput dose response assay to identify inhibitors of phospholipase C isozymes (PLC-B3).
HeLa = experiment: HeLa cell cytotoxicity, dose response, cytotoxicity control, 24 h, cherry-picked samples (AID 504726); format: functional, cell-based; details: Homo sapiens;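 note: potency for cytotoxicity as loss of luminescence signal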
[16] = biological target: T4, Voltage-gated N-type calcium channel alpha-1B subunit/Amyloid beta A4 precursor protein-binding family A member 1 (Homo sapiens, UniProt Q00975+Q02410); format: protein assay
T4 sequence (Q00975 whole entry): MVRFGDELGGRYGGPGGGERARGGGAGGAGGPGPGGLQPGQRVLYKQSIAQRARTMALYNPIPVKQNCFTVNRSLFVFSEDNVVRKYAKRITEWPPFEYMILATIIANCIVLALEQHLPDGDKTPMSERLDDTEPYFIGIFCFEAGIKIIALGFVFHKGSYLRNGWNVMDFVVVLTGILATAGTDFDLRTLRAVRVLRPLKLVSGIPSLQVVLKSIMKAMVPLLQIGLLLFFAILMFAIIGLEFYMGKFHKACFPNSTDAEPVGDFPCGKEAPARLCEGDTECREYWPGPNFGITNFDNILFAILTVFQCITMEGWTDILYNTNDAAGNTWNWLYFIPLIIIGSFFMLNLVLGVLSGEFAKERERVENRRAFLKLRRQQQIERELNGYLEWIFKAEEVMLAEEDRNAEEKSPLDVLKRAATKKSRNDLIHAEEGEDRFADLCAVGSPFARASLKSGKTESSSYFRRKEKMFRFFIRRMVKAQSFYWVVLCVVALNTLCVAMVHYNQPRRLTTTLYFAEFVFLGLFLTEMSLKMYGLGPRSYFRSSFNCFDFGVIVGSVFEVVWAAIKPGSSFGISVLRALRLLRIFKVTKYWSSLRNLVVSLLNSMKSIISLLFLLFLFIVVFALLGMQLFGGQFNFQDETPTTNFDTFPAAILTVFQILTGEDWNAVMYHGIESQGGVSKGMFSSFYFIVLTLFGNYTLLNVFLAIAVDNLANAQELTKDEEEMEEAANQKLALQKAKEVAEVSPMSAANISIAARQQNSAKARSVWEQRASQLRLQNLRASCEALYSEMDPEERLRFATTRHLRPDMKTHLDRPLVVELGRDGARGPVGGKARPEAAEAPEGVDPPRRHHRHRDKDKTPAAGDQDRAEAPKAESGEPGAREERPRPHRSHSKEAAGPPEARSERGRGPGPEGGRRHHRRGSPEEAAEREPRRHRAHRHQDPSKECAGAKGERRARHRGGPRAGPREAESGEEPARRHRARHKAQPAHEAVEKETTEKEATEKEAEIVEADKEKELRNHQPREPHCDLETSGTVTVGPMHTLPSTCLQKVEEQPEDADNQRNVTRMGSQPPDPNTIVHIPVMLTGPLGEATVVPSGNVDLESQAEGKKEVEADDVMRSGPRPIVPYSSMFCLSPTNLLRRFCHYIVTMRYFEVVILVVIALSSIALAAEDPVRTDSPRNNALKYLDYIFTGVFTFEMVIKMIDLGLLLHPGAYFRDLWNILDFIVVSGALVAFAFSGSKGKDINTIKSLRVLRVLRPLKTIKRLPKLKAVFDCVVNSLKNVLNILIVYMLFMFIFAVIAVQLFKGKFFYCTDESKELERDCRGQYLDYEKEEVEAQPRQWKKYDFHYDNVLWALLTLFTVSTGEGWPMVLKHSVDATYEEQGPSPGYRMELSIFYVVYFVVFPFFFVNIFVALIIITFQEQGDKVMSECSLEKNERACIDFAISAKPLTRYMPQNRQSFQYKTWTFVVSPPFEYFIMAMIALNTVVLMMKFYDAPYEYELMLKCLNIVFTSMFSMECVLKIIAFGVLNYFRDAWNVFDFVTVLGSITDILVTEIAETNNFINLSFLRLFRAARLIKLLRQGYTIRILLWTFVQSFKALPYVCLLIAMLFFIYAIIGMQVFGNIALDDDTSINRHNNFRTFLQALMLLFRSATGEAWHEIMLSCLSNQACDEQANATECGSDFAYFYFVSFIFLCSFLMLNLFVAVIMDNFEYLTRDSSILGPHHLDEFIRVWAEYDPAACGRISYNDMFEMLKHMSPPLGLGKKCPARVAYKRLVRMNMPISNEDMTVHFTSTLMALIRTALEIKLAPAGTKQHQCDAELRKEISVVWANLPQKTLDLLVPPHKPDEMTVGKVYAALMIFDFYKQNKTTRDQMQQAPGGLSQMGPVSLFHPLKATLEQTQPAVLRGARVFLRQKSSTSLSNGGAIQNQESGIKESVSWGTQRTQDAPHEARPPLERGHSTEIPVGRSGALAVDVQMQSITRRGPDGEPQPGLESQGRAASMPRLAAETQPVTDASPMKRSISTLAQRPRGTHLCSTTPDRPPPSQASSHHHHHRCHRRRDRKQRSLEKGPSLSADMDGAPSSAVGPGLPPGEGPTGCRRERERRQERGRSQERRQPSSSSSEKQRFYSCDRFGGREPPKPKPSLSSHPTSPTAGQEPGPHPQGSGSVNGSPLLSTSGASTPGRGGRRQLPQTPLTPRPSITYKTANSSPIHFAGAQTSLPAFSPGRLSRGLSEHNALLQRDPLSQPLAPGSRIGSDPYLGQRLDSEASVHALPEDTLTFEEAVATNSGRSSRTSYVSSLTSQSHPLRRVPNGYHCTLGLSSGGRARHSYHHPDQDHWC
T4 sequence (Q02410 whole entry): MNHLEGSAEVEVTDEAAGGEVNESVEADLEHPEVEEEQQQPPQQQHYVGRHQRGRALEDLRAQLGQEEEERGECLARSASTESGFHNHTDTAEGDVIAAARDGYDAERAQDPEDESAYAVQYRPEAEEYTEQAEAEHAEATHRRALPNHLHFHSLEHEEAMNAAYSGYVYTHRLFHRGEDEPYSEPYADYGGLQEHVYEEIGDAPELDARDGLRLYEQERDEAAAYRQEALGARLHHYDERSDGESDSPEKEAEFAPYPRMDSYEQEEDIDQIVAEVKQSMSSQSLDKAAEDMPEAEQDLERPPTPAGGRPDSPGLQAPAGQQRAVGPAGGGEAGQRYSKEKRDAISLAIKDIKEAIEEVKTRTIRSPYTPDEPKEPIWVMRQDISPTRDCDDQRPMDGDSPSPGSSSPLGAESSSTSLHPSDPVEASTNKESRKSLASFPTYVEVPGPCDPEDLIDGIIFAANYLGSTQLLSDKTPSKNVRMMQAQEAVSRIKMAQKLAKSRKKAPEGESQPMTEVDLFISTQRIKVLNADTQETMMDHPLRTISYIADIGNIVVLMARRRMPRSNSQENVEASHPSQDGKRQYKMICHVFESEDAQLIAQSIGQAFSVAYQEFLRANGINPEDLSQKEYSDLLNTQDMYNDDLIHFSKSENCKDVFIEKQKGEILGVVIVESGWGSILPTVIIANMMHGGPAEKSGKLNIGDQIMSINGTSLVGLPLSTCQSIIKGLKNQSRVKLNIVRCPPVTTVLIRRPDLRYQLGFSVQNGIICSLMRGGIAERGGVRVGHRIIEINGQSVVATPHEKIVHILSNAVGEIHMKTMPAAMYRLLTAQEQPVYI

[17] = biological target: T4, Voltage-gated N-type calcium channel alpha-1B subunit/Amyloid beta A4 precursor protein-binding family A member 1; format: protein assay; remark: listed apart in the source
[18] = biological target: T4, Voltage-gated N-type calcium channel alpha-1B subunit/Amyloid beta A4 precursor protein-binding family A member 1; experiment: disruptors of Mint-PDZ/N-type channel peptide interaction – biochemical, HTRF, SAR follow-up (AID 2489); format: functional
Protein Rev = Protein Rev (Human immunodeficiency virus type 1 group M subtype B (isolate HXB2)(HIV-1), UniProt P04618); experiment: inhibitors of Rev binding to RRE RNA, dose response, biochemical, fluorescence polarization, HIV-1 (AID 434976); design: species or system Human immunodeficiency virus 1
Protein Rev, sequence (P04618 whole entry): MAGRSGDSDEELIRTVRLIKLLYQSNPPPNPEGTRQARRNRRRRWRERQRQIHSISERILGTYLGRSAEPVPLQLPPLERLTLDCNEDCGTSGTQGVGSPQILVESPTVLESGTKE

[19] = biological target: Female germline-specific tumor suppressor gld-1 (Caenorhabditis elegans, UniProt Q17339); experiment: inhibitors of GLD-1 binding to TGE RNA, dose response, biochemical, fluorescence polarization, C. elegans (AID 2802);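 note: fluorescence polarization of labeled TGE RNA bound by purified gld-1 protein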
Female germline-specific tumor suppressor gld-1, sequence (Q17339 whole entry): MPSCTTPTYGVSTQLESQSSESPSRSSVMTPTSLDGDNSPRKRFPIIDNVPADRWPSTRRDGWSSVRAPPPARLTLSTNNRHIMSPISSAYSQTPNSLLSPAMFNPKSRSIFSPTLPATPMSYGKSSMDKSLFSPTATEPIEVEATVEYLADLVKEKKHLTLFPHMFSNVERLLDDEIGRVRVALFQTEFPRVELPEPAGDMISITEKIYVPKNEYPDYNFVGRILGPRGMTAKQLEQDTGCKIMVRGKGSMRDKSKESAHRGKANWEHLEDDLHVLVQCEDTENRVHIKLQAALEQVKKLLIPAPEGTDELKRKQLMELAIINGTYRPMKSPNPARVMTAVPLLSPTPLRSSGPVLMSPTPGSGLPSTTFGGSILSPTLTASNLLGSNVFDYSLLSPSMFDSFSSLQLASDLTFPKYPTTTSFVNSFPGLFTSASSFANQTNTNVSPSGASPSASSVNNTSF

[20] = biological target: T5, Zinc finger protein mex-5 (Caenorhabditis elegans, UniProt Q9XUB2); experiment: MEX-5/TCR-2 RNA interaction inhibitors, dose response, biochemical, C. elegans, fluorescence polarization (AID 1960)
T5 sequence (Q9XUB2 whole entry): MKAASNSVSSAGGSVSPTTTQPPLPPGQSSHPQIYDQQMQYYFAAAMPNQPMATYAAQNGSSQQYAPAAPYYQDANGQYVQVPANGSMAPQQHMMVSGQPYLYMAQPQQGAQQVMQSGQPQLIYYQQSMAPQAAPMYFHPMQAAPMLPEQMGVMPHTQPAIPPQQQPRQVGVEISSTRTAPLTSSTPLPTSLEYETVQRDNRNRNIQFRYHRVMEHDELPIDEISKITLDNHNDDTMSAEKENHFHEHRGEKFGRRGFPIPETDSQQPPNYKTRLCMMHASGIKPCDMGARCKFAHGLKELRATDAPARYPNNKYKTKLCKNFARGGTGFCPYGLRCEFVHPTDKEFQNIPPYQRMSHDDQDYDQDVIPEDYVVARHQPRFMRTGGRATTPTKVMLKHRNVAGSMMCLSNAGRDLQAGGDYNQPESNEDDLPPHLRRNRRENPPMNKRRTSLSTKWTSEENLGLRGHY

[21] = biological target: T6, RNA-binding protein pos-1 (Caenorhabditis elegans, UniProt G5EF15); experiment: inhibitors of POS-1/mex-3 RNA binding, dose response, biochemical, fluorescence polarization (AID 1964);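 note: purified POS-1 fused to maltose binding protein made in E. coli; potency of compounds blocking POS-1 binding to fluorescent RNA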
T6 sequence (G5EF15 whole entry): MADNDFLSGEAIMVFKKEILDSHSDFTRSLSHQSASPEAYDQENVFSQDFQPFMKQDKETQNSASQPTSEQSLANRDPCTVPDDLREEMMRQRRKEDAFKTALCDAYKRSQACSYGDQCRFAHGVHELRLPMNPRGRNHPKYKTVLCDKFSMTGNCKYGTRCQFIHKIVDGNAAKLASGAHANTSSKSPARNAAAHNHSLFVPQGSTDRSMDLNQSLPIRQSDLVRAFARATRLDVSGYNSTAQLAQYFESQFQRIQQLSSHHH

COc1ccc(N(C(=O)CCl)C(C(=O)NC2CCCCC2)c2cccs2)cc1Cl (stereo not drawn)
AC50 [1]: 0.113 µM (active)
AC50 [2]: 0.455 µM (active)
AC50 [3]: 0.12 µM (active)
AC50 [4]: 0.27 µM (active)

N#CCC(=O)Nc1ccc(C(=O)OCC(=O)Nc2ccccc2Sc2ccccc2)cc1
IC50 [5]: 2.17 µM (active)
EC50 [6]: > 260 µM (inactive)
IC50 [7]: > 109 µM (inactive)
IC50 [8]: > 83.3 µM (inactive)

O=C(CN1C(=O)/C(=C/c2ccco2)SC1=S)Nc1ccc(O)c(C(=O)O)c1
IC50 [9]: > 122 µM (inactive)
AC50 [10]: > 20 µM (inactive)
IC50 (Bcl-2-like protein 1): > 109 µM (not active)
IC50 [11]: 15.1 µM (active)
IC50 (Large T antigen): 54.3 µM (active)
IC50 [12]: 18.5 µM (not active)
AC50 (ORF 73): 98.5 µM (active)
IC50 [13]: 13.2 µM (active)
IC50 [14]: 5.86 µM (active)
IC50 (Genome polyprotein): > 100 µM (active)
IC50 [15]: > 122 µM (inactive)
AC50 (HeLa): > 350 µM (inactive)

CCCCc1ccc(/C=C2\C(=O)c3ccccc3C(O)=C2C(=O)OCC)cc1
IC50 [16]: 17.8 µM (active)
IC50 [17]: 5.63 µM (active)
IC50 [18]: 16.2 µM (active)

COc1ccc(N(C(=O)CCl)C(C(=O)NCn2nnc3ccccc32)c2cccs2)cc1Cl (stereo not drawn)
AC50 [1]: 0.102 µM (active)
AC50 [2]: 0.432 µM (active)
AC50 [3]: 0.097 µM (active)
AC50 [4]: 0.242 µM (active)

CCN1C/C(=C/c2cccs2)c2nc3ccccc3c(C(=O)O)c2C1
IC50 (Protein Rev): 17 µM (not active)
IC50 [19]: 9.41 µM (active)
EC50 [20]: 31.9 µM (active)
EC50 [21]: 39.2 µM (active)

COc1ccc(NC(=O)c2ccc(-c3ccc(C(C)=O)cc3)o2)cn1
IC50 (Protein Rev): 16.4 µM (not active)
IC50 [19]: 9.1 µM (active)
